# Legend:
# [1] = tested on: Nippostrongylus brasiliensis (Nb)-infected mice; assay: Nmb treatment (i.t.) of Nippostrongylus brasiliensis-infected mice; format: in vivo, mouse
# Method: FIGS. 6A-6E. […] (A), Nb-infected mice were treated with PBS or Nmb (i.t.) and ILC2s in the BAL were quantified. (B) Expression of IL-5 and IL-13 in the lungs of PBS or Nmb-treated mice was determined on day 7 post-Nb by Real-time PCR. (C) Eosinophils in the BAL were quantified and (D) worm burdens were determined on day 7 post-Nb infection. ILC2s were sort-purified from the lungs of control or baso-dep mice on day 7 post-Nb and cultured (O/N) with IL-2 and IL-7 in the presence or absence of Nmb and (E) IL-5 and IL-13 levels in culture supernatants were determined by ELISA. P values were determined by two-tailed Student's t-tests.
# Methods for maintenance, recovery, infection and isolation of N. brasiliensis larvae were performed as previously described (Camberis et al., 2003, Animal model of Nippostrongylus brasiliensis and Heligmosomoides polygyrus. Current protocols in immunology/edited by John E. Coligan . . . [et al.] Chapter 19:Unit 19.12.). Mice were infected with ˜500 N. brasiliensis larvae by subcutaneous injection. For basophil depletion, WT and basophil-depleted mice were treated with 0.375 μg of diphtheria toxin i.p. every other day; mice were sacrificed 3-7 days post-N. brasiliensis infection. For neuromedin B treatment, mice were anesthetized and treated with 10 μg of neuromedin B (MP Biomedicals) dissolved in 50 μL of PBS administered via intratracheal instillation.
# For BAL collection after necropsy, 5 mL of PBS were injected and aspirated from the trachea of each mouse, after collection the volume of BAL collected was recorded. Following BAL collection, lungs were collected at necropsy and single-cell suspensions for flow cytometric analysis were prepared as previously described (Jungblut et al., J Vis Exp 29:1266, 2009). Briefly, pulmonary tissue was minced and incubated in HBSS containing 2.5% of FBS, collagenase D (2 mg/mL, Roche) and DNAse I (80 U/mL, Roche) for 30 min at 37° C. Cell suspensions were filtered through a […] filter and analyzed by flow cytometry. Additionally sections of pulmonary tissue were collected for real-time PCR and histological analysis.
# Cells were stained with monoclonal anti-mouse fluorescently conjugated antibodies: B220 (RA3-6B2), c-Kit (ACK2), CD3 (145-2C11), CD4 (GK1.5), CD5 (53-73), CD19 (1D3), NK1.1 (PK136), CD11b (MI/70), CD11c (N418), IgE (23G3), FcRI (MAR-1), CD49b (DX5), CD45 (30-F11), CD90 (5E10), CD127 (A7R34), F4/80 (BM8), γδTCR (eBioGL3), Siglec-F (E50-2440), LγδG (1A8), LγδC (AL-21), IL-5 (TRFK5), IL-13 (eBiol3A), Ter-119 (TER-119) from eBioscience or BD Biosciences. For intracellular staining, cells were incubated for 5 hours at 37° C. with Leukocyte Activation Cocktail, with BD GolgiPlug™ (BD Biosciences) following manufacturer's instructions. Basophils were analyzed as CD45^+CD3^−CD19^−FceR1^+CD49b^+. Eosinophils were analyzed as CD45^+CD11b^+Siglec-F^+CD11c^−. Neutrophils were analyzed as Live CD45^+CD11b^+LγδG^+. ILC2s were analyzed as CD45^+CD3^−CD19^−CD11b^−CD11c^−NK1.1^−B220^−CD5^−Ter-119^− γδ TCR^−CD90^+CD127^+IL-5^+IL-13^+. Samples were acquired on a BD Fortessa flow cytometer (BD Biosciences) and analyzed using Flowlo software (v10.0.5, Tree Star). Cell sorting was performed using a FACSAriaII (BD Bioscience).
# RNA from sections of lung tissue was isolated by homogenization in TRIzol (Invitrogen) followed by phenol-chloroform extraction and isopropanol precipitation. cDNA was generated per standard protocol with Superscript reverse transcriptase (Invitrogen) and used as input for real-time PCR. Real-time data were analyzed using the ΔΔCT method using SYBR Green chemistry (Applied Biosystems) with β-actin serving as the endogenous housekeeping gene. All reactions were run on an ABI 7500 Fast Real-Time PCR System (Applied Biosystems). Samples were normalized to naïve controls.
# NMBR expression by ILC2s = assay: NMBR expression by cultured lung ILC2s, flow cytometry; format: cell-based, mouse; conditions: ILC2s day 7 post-Nb, survival and/or activating cytokines, day 4 post-culture
# Source text: FIG. 9. Basophils regulate NMBR expression. ILC2s were sort-purified from the lung of Nb-infected mice (day 7) and stimulated with survival cytokines (IL-7 and IL-2) and also with activated basophils, IL-4 or IL-33 overnight. NMBR expression was monitored by flow cytometric analysis post-culture. Data are presented as […] mean fluorescent intensity (GMFI). Statistical comparisons were done using a Student's t-test.
# FIG. 14. Prostaglandin E2 upregulates expression of NMBR on lymphocytes. Lung ILC2s were sort-purified from the lungs of mice on day 7 post-Nb and cultured with a combination of survival cytokines (IL-2 and IL-7) and/or activating cytokines (IL-25 and IL-33). In addition, cultures were treated with NMB or prostaglandin E2 (PGE2) and the expression of NMBR was measured by flow cytometric analysis on day 4 post-culture. Statistical analysis was performed using a student's t-test. Negative NMBR staining as determined by an isotype control antibody is also shown (Isot).
# NMBR expression by lung ILC2s was reduced when basophils are depleted following an Nb infection. To determine whether basophils directly mediate expression of NMBR or whether they operate through intermediate pathways, ILC2s were sort-purified from the lungs of Nb-infected mice (day 7) and cultured with the survival cytokines IL-2 and IL-7. Additionally, the ILC2s were cultured with activated basophils, IL-4, or IL-33 overnight. NMBR expression was subsequently monitored by flow cytometric analysis post-culture.
# To better determine the mechanisms through which basophils regulate expression of NMBR on lymphocytes, ILC2s were cultured with a combination of survival and activating cytokines in the presence or absence of NMB or prostaglandin E2 (PGE2).
# [2] = Nmb i.t. vs PBS, day 7, Real-time PCR
# [3] = Nmb i.t. vs PBS, day 7 post-infection
substance,measurement,setting,value
H2N-GNLWATGHFM-amide [Nmb],IL-5 expression in the lungs,[1]; [2],reduced
same,IL-13 expression in the lungs,[1]; [2],reduced
same,ILC2 responses (ILC2s in the BAL),[1]; [3],reduced
same,eosinophilia (eosinophils in the BAL),[1]; [3],reduced
same,infection-induced neutrophilia,[1]; [3],no effect
same,worm clearance (worm burdens),"[1]; Nmb i.t. vs control mice, day 7 post-infection",failed to clear worms as efficiently as control mice
same,NMBR expression by ILC2s,NMBR expression by ILC2s,failed to upregulate

# Reference: patent US20260174829A1, “METHODS OF REDUCING TYPE 2 CYTOKINE-MEDIATED INFLAMMATION USING NEUROMEDIN PEPTIDES” (Rutgers, The State University of New Jersey, priority 2018, published 2026)
